Data as given in patent US20250057890A1, “FUNCTIONAL FOOD CONTAINING BONITO-DERIVED EXTRACT FOR PREVENTING OR AMELIORATING NEUROPSYCHIATRIC DISORDERS” (MARUHACHI MURAMATSU, INC., priority 2022, published 2025).

Columns and labels:
[1] = test system: MG6 cells from mouse brain microglia; test: Anti-inflammatory action: TNF-α production in LPS-activated MG6 cells (ELISA); type: cell-based; details: for anti-inflammatory activity: MG6 cells, LPS, fractions or single components; for anti-inflammatory action compared to katsuobushi extract: known components of katsuobushi, each in isolation
Description: MG6 cells from mouse brain microglia were purchased from the RIKEN BioResource Research Center (BRC), and the anti-inflammatory action of various extracts, including from katsuobushi, were assayed (see FIG. 1). First, a 96-well plate was seeded with the MG6 cells (5×10^3 cells/well·90 μL), and a culture was started in a CO2 incubator (37° C., CO2 level 5%). Next the various extracts were added to the wells after 0.5 hours, followed by the addition of lipopolysaccharide (LPS) 1 hour after that to activate the MG6 cells and induce an inflammatory state. After 6 hours, 10 μL of culture supernatant was collected from each well, after which 10 μL of a viable cell counting reagent (WST-8) was added to each well, and absorbance at 450 nm (reference wavelength 630 nm) was measured with a plate reader after 1 hour and 2 hours.
The previously collected culture supernatant was diluted 25-fold with a buffer, and the levels of TNF-α, a type of inflammatory cytokine, produced in the culture supernatant was measured via ELISA (using ELISA MAX™ Deluxe Set Mouth TNF-α, a kit manufactured by BioLegend). In the LPS addition test section, anti-inflammatory action was determined to be higher when the TNF-α production levels were more reduced through the prior addition of the various extracts, and lower the less said levels were reduced.

[2] = test system: microglia in the hippocampus; details: Liang et al., International Journal of Neuroscience, 2022; cited from earlier work
[3] = test system: rat brain capillary endothelial cells (RBECs, primary cells); test: Protein expression of tight-junction-associated molecules (claudin-5 and occludin) in RBECs, western blot; type: cell-based
Description: First, a 48-well plate was seeded with the RBECs (2×10^5 cells/well·440 μL), and a culture was started in a CO2 incubator (37° C., CO2 level 5%). Next, after 72 hours, the medium in each well was replaced with an evaluation medium prepared by adding the various extracts, and, 24 hours and 72 hours after that, RNA and protein were recovered from the cultured cells a NucleoSpin RNA/Protein kit (Takara Bio) according to the protocol of the kit. The extracted protein was evaluated via western blot, and DNA obtained by reverse transcription of the extracted RNA was evaluated via real-time PCR.
(§1) First, a 48-well plate was seeded with the RBECs (2×10^5 cells/well·440 μL), and a culture was started in a CO2 incubator (37° C., CO2 level 5%). […] The extracted protein was evaluated via western blot, and DNA obtained by reverse transcription of the extracted RNA was evaluated via real-time PCR (real-time PCR data not shown here).
as §1

SMILES	anti-inflammatory activity [1]	anti-inflammatory action compared to katsuobushi extract [1]	further results
CC(O)C(=O)O (centres unmarked) [lactic acid]	showed anti-inflammatory activity	–	anti-inflammatory activity (literature) [2]: already been reported to have anti-inflammatory activity
O=C(O)CO [glycolic acid]	showed anti-inflammatory activity	–	–
NCCC(=O)N[C@@H](Cc1cnc[nH]1)C(=O)O [carnosine]	–	none of these substances in isolation showed anti-inflammatory action comparable to katsuobushi extract	–
O=c1[nH]cnc2nc[nH]c12 [hypoxanthine]	anti-inflammatory activity was observed	–	–
Nc1ncnc2c1ncn2[C@@H]1O[C@H](COP(=O)(O)O)[C@@H](O)[C@H]1O [AMP, adenosine 5′-monophosphate]	anti-inflammatory activity was observed	–	–
CN(CC(=O)O)C(=N)N [creatine]	–	none of these substances in isolation showed anti-inflammatory action comparable to katsuobushi extract	–
Cn1cncc1C[C@H](NC(=O)CCN)C(=O)O [anserine]	–	none of these substances in isolation showed anti-inflammatory action comparable to katsuobushi extract	–
N[C@@H](Cc1c[nH]cn1)C(=O)O [histidine]	–	none of these substances in isolation showed anti-inflammatory action comparable to katsuobushi extract	claudin-5 protein expression ([3]; added concentration 0.836 mg/ml, after 24 hours, compared to serum-free medium): elevated; expression of tight-junction-associated molecules (claudin-5 and occludin) at the genetic level and the protein level ([3]; rat cerebrovascular endothelial cells): elevated expression
C[N+](C)(C)CC(=O)O [betaine]	–	none of these substances in isolation showed anti-inflammatory action comparable to katsuobushi extract	–
O=C(O)CCC(=O)O [succinic acid]	anti-inflammatory activity was observed	–	–
O=C[C@H](O)[C@H](O)[C@H](O)COP(=O)(O)O [ribose 5-phosphate]	anti-inflammatory activity was observed	–	–
